From US10239889B1, “Pentacyclic compound” (Eisai R&D Management Co., Ltd., priority 2017, dated 2019)

Tested on: human tau P301S transgenic mice
Assay: Evaluation in human tau P301S transgenic mouse: ChAT positive cells in the medial septal area
Assay type: in vivo
Details: mean±SEM
Description: Evaluation in Human Tau P301S Transgenic Mouse
(1) Compound Administration
In this study, the test compounds were orally administered to human tau P301S transgenic mice once a day for three months from four-month-old to seven-month-old. The vehicle used was 0.01 mol/L hydrochloric acid.
At the initial day of the administration (four-month-old) and at the next day of the final administration, mice of vehicle administration group and test compound administration group were anesthetized under pentobarbital (50 mg/kg, i.p.) and perfused with PBS. After the perfusion, the forebrain including the medial septal area was collected and fixed with 4% paraformaldehyde.
(3) Preparation of Brain Coronal Frozen Section
The collected forebrain including the medial septal area was immersed and shaken overnight in 4% paraformaldehyde. […]
The prepared brain coronal frozen sections were stained with DAB (DAB PEROXIDASE SUBSTRATE KIT (Vector, SK-4100)) using a ChAT antibody (Santa Cruz, S.C.-20672) as a primary antibody. The section image including the medial septal area as shown in “The mouse Brain in stereotaxic coordinates” (COMPACT THIRD EDITION, Keith B.J. Franklin & George Paxinos) was taken by an all-in-one fluorescence microscope (KEYENCE, BZ-X710) and ChAT positive cells around the major axis of the medial septal area were counted by BZ analysis software (KEYENCE). […] Data are expressed as the mean±SEM. […]

SMILES	Ratio (%) of number of ChAT positive cells compared to that in the initial administration (oral 10 mg/kg once a day for three months (4 to 7 months old))	Ratio (%) of number of ChAT positive cells compared to that in the initial administration (oral 5 mg/kg once a day for three months (4 to 7 months old))
CN1CCc2c(sc3nc4n(c(=O)c23)-c2ccc(F)cc2C(=O)N(C)C4)C1 [Example 1]	105.0 ± 4.0^# %	
CN1CCc2c(sc3nc4n(c(=O)c23)-c2sccc2C(=O)N(C)C4)C1 [Example 3, 5,10-dimethyl-5,6,9,10,11,12-hexahydropyrido[4″,3″:4′,5′]thieno[2′,3′:4,5]pyrimido[1,2-a]thieno[3,2-f][1,4]diazepine-4,13-dione]		105.3 ± 4.3^# %
